In patent US6989399B2, “Antiamyloid phenylsulfonamides: N-alkanol derivatives” (Bristol-Myers Squibb Company, priority 2002, dated 2006):

Molecular target: T1, γ-secretase (Homo sapiens, UniProt P49768)
T1 construct: The endogenous γ-secretase present in the isolated membranes; endogenous in cells; host or cells: isolated membrane fraction of human-derived cell lines such as HeLa and H4, stably transfected with β-APP substrate
Experiment: Isolated membrane γ-secretase assay, time-resolved fluorescence detection of Aβ
Assay type: biochemical
Settings: isolated membranes, about 90 minutes at 37 degrees C; read-out: Activity (IC50), Inhibition of β-Amyloid Peptide
Description: The detection of γ-secretase activity requires assays capable of reliable, accurate and expedient detection of γ-secretase cleavage products, particularly Aβ. An isolated membrane fraction that contains functionally active γ-secretase and β-APP substrates can generate γ-secretase cleavage products including Aβ (Roberts et al., WO 01/75435; Fechteler et al., Patent Application No. DE 99-19941039 19990828; Shearman et al., Biochemistry, 39, p. 8698–8704 (2000); Zhang et al., Biochemistry, 40, p. 5049-5055 (2001)). An isolated membrane fraction can be prepared from human derived cell lines such as HeLa and H4 which have been transfected with wild type or mutant forms of β-APP or a human alkaline phosphatase β-APP fusion construct, and stably express high levels of γ-secretase substrates. The endogenous γ-secretase present in the isolated membranes prepared at 0–4 degrees C. cleaves the β-APP substrates when the membranes are shifted from 0–4 to 37 degrees C. […] 325–327 (1992), or by a preferred method using time-resolved fluorescence of the homogeneous sample containing membranes and Aβ (Roberts et al., WO 01/75435; Shearman et al., Biochemistry, 39, p. 8698–8704 (2000)). The Aβ present in a homogeneous sample containing membranes can be detected by time-resolved fluorescence with two antibodies that recognize different epitopes of Aβ. One of the antibodies recognizes an epitope that is present in Aβ but not present in the precursor fragments; preferably the antibody binds the carboxyl terminus of Aβ generated by the γ-secretase cleavage. The second antibody binds to any other epitope present on Aβ. For example, antibodies that bind the N-terminal region (e.g., 26D6-B2-B3® SIBIA Neurosciences, La Jolla, Calif.) or bind the C-terminal end (e.g., 9S3.2® antibody, Biosolutions, Newark, Del.) of the Aβ peptide are known. The antibodies are labeled with a pair of fluorescent adducts that transfer fluorescent energy when the adducts are brought in close proximity as a result of binding to the N- and C-terminal ends or regions of Aβ. A lack of fluorescence is indicative of the absence of cleavage products, resulting from inhibition of γ-secretase. The isolated membrane assay can be used to identify candidate agents that inhibit the activity of γ-secretase cleavage and Aβ production.
A typical membrane-based assay requires 45 μg membrane protein per well in a 96- or 384-well format. Membranes in a neutral buffer are combined with the test compound and shifted from 0–4 to 37 degrees C. Test agents may typically consist of synthetic compounds, secondary metabolites from bacterial or fungal fermentation extracts, or extracts from plant or marine samples. All synthetic agents are initially screened at doses ranging from 10–100 μM or in the case of extracts at sufficient dilution to minimize cytotoxicity. Incubation of the membranes with the test agent will continue for approximately 90 minutes at which time fluorescence labeled antibodies are added to each well for Aβ quantitation. The time-resolved fluorescence detection and quantitation of Aβ is described elsewhere (Roberts et al., WO 01/75435; Shearman et al., Biochemistry, 39, p. 8698–8704 (2000)). Results are obtained by analysis of the plate in a fluorescence plate reader and comparison to the mock treated membranes and samples in which known amounts of Aβ were added to construct a standard concentration curve. A positive acting compound is one that inhibits the Aβ relative to the control sample by at least 50% at the initial tested concentration. If a compound is found to be active then a dose response experiment is performed to determine the lowest dose of compound necessary to elicit the inhibition of the production of Aβ.
The Formula I compounds were tested in the assay described above and found to be active as inhibitors of γ-secretase. […]

**Q.** CC(O)C[C@@H](C)N(c1cc(Cl)ccc1Cl)S(=O)(=O)c1ccc(Cl)cc1 (mixture of isomers) [Example 7] was tested. Which IC50 did it give?
**A.** 50 to 200 nM

**Q.** CC(C)C(O)[C@@H](C)N(c1cc(Cl)ccc1Cl)S(=O)(=O)c1ccc(Cl)cc1 (mixture of isomers) [Example 10] was tested. Which IC50 did it give?
**A.** 200 to 5000 nM

**Q.** How did the IC50 turn out when CC(C)CC(O)[C@@H](C)N(c1cc(Cl)ccc1Cl)S(=O)(=O)c1ccc(Cl)cc1 (mixture of isomers) [Example 11] was run?
**A.** 200 to 5000 nM

**Q.** How did the IC50 turn out when C[C@H](C(O)C1CCCC1)N(c1cc(Cl)ccc1Cl)S(=O)(=O)c1ccc(Cl)cc1 (mixture of isomers) [Example 12] was run?
**A.** 200 to 5000 nM

**Q.** Which IC50 does the source give for C[C@H](C(O)C1CCCCC1)N(c1cc(Cl)ccc1Cl)S(=O)(=O)c1ccc(Cl)cc1 (mixture of isomers) [Example 13] here?
**A.** 200 to 5000 nM

**Q.** How did the IC50 turn out when C[C@H](C(O)c1ccccc1)N(c1cc(Cl)ccc1Cl)S(=O)(=O)c1ccc(Cl)cc1 (mixture of isomers) [Example 14] was run?
**A.** 200 to 5000 nM

**Q.** With COc1ccc(C(O)[C@@H](C)N(c2cc(Cl)ccc2F)S(=O)(=O)c2ccc(Cl)cc2)cc1 (mixture of isomers) [Example 22] as the molecule, how does the IC50 read?
**A.** 200 to 5000 nM

**Q.** Which IC50 does the source give for C[C@H](C(O)CC(=O)O)N(c1cc(Cl)ccc1F)S(=O)(=O)c1ccc(Cl)cc1 (mixture of isomers) [Example 24] here?
**A.** 50 to 200 nM

**Q.** For CC(C)CC(O)C[C@@H](C)N(c1cc(Cl)ccc1Cl)S(=O)(=O)c1ccc(Cl)cc1 (mixture of isomers) [Example 28], which IC50 is on record?
**A.** 50 to 200 nM

**Q.** C=CCCC(O)C[C@@H](C)N(c1cc(Cl)ccc1Cl)S(=O)(=O)c1ccc(Cl)cc1 (mixture of isomers) [Example 29] was tested. Which IC50 did it give?
**A.** 50 to 200 nM

**Q.** How did the IC50 turn out when C[C@H](CC(O)c1ccccc1)N(c1cc(Cl)ccc1Cl)S(=O)(=O)c1ccc(Cl)cc1 (mixture of isomers) [Example 30] was run?
**A.** 50 to 200 nM

**Q.** How did the IC50 turn out when C=CCC(O)[C@@H](C)N(c1cc(Cl)ccc1Cl)S(=O)(=O)c1ccc(Cl)cc1 (single isomer, unassigned) [Example 5A] was run?
**A.** 50 to 200 nM

**Q.** C=CCC(O)[C@@H](C)N(c1cc(Cl)ccc1Cl)S(=O)(=O)c1ccc(Cl)cc1 (single isomer, unassigned) [Example 5B] was tested. Which IC50 did it give?
**A.** 200 to 5000 nM

**Q.** How did the IC50 turn out when CCCC(O)[C@@H](C)N(c1cc(Cl)ccc1Cl)S(=O)(=O)c1ccc(Cl)cc1 (single isomer, unassigned) [Example 6A] was run?
**A.** 50 to 200 nM

**Q.** For CCCC(O)[C@@H](C)N(c1cc(Cl)ccc1Cl)S(=O)(=O)c1ccc(Cl)cc1 (single isomer, unassigned) [Example 6B], which IC50 is on record?
**A.** 200 to 5000 nM

**Q.** With CCCC(=O)OC(CCC)[C@@H](C)N(c1cc(Cl)ccc1F)S(=O)(=O)c1ccc(Cl)cc1 (single isomer, unassigned) [Example 8] as the molecule, how does the IC50 read?
**A.** 50 to 200 nM

**Q.** How did the IC50 turn out when CC(O)C(C)N(c1cc(Cl)ccc1Cl)S(=O)(=O)c1ccc(Cl)cc1 (single isomer, unassigned) [Example 9A] was run?
**A.** 50 to 200 nM

**Q.** With Cc1cc(C)c(C(O)[C@@H](C)N(c2cc(Cl)ccc2Cl)S(=O)(=O)c2ccc(Cl)cc2)c(C)c1 (single isomer, unassigned) [Example 16A] as the molecule, how does the IC50 read?
**A.** 200 to 5000 nM

**Q.** Which IC50 does the source give for CC(C(O)CCc1ccccc1)N(c1cc(Cl)ccc1Cl)S(=O)(=O)c1ccc(Cl)cc1 (single isomer, unassigned) [Example 17A] here?
**A.** 200 to 5000 nM

**Q.** Which IC50 does the source give for CC(C(O)CCc1ccccc1)N(c1cc(Cl)ccc1Cl)S(=O)(=O)c1ccc(Cl)cc1 (single isomer, unassigned) [Example 17B] here?
**A.** 200 to 5000 nM

**Q.** With C=CCCC(O)C(C)N(c1cc(Cl)ccc1Cl)S(=O)(=O)c1ccc(Cl)cc1 (single isomer, unassigned) [Example 18A] as the molecule, how does the IC50 read?
**A.** 50 to 200 nM

**Q.** How did the IC50 turn out when C=CCCC(O)C(C)N(c1cc(Cl)ccc1Cl)S(=O)(=O)c1ccc(Cl)cc1 (single isomer, unassigned) [Example 18B] was run?
**A.** 200 to 5000 nM

**Q.** CC(O)C(C)N(c1cc(Cl)ccc1F)S(=O)(=O)c1ccc(Cl)cc1 (single isomer, unassigned) [Example 19A] was tested. Which IC50 did it give?
**A.** 50 to 200 nM

**Q.** With C=CCCC(O)C(C)N(c1cc(Cl)ccc1F)S(=O)(=O)c1ccc(Cl)cc1 (single isomer, unassigned) [Example 20A] as the molecule, how does the IC50 read?
**A.** 50 to 200 nM

**Q.** Which IC50 does the source give for C=CCCC(O)C(C)N(c1cc(Cl)ccc1F)S(=O)(=O)c1ccc(Cl)cc1 (single isomer, unassigned) [Example 20B] here?
**A.** 200 to 5000 nM

**Q.** C#CCC(O)[C@@H](C)N(c1cc(Cl)ccc1F)S(=O)(=O)c1ccc(Cl)cc1 (single isomer, unassigned) [Example 21A] was tested. Which IC50 did it give?
**A.** < 50 nM

**Q.** Which IC50 does the source give for C#CCC(O)[C@@H](C)N(c1cc(Cl)ccc1F)S(=O)(=O)c1ccc(Cl)cc1 (single isomer, unassigned) [Example 21B] here?
**A.** < 50 nM

**Q.** C=CCC(O)[C@@H](C)N(c1cc(Cl)ccc1F)S(=O)(=O)c1ccc(Cl)cc1 (single isomer, unassigned) [Example 23A] was tested. Which IC50 did it give?
**A.** < 50 nM

**Q.** How did the IC50 turn out when CCCC(O)[C@@H](C)N(c1cc(Cl)ccc1F)S(=O)(=O)c1ccc(Cl)cc1 (single isomer, unassigned) [Example 27A] was run?
**A.** < 50 nM
